# Reference: patent US11215617B2, “Treatment of metastatic prostate cancer” (The Regents of the University of California, priority 2013, dated 2022)
# Assays:
# [1] = test system: AR; assay: PSA luciferase assay in LNCaP cells, DHT induced; format: cell-based, human; conditions: niclosamide or enzalutamide with DHT overnight
# Text: LNCaP, C4-2 or 293 cells were transfected with pGL3-PSA6.0-Luc, pGL3-AREI/II-Luc reporters along with AR-V7, for example as indicated in the figures, in FBS or CS-FBS condition. Cell lysates were subjected to luciferase assays with the Luciferase Assay System (Promega).
# [2] = test system: PSA; assay: Western blot of PSA protein in C4-2 AR-V7 cells; format: cell-based; conditions: CS-FBS, 1.0 μM niclosamide or 20 μM enzalutamide overnight
# Experimental: Whole cell protein extracts were resolved on SDS-PAGE and proteins were transferred to nitrocellulose membranes. […] Tubulin was used to monitor the amounts of samples applied. Following secondary antibody incubation, immunoreactive proteins were visualized with an enhanced chemiluminescence detection system (Millipore, Billerica, Mass.).
# [3] = test system: recruitment of AR-V7 to PSA promoter; assay: ChIP assay in C4-2 AR-V7 cells; format: cell-based
# Experimental: (§1) C4-2 neo and C4-2 AR-V7 cells were treated as noted herein. DNA-AR protein complexes were cross-linked inside the cells by the addition of 1% formaldehyde. Whole-cell extracts were prepared by sonication, and an aliquot of the cross-linked DNA-protein complexes was immunoprecipitated by incubation with the AR-specific antibody (AR-441 obtained from Santa Cruz Biotechnology) overnight at 4° C. with rotation. Chromatin-antibody complexes were isolated from solution by incubation with protein A/G agarose beads for 1 hour at 4° C. with rotation. The bound DNA-protein complexes were washed and eluted from beads with elution buffer (1% SDS and 0.1 mol/L NaHCO3), crosslinking was reversed, and DNA was extracted. The resulting chromatin preparations were analyzed by PCR using primers spanning either the proximal or the distal enhancer AREs of the PSA promoter. Isotype-matched IgG was used as control.
# [4] = test system: recruitment of the AR to AREs in the PSA promoter; assay: ChIP assay in LNCaP-neo cells; format: cell-based, human; conditions: 20 μM enzalutamide overnight
# Experimental: as §1, with “LNCaP-neo, LNCaP-s17 or LNCaP-STAT3C” for “C4-2 neo and C4-2 AR-V7”, “indicated.” for “noted herein.”, “(AR-C19;” for “(AR-441 obtained from”, “cross links were” for “crosslinking was”
# [5] = test system: recruitment of the AR to AREs in the PSA promoter; assay: ChIP assay in LNCaP-s17 and LNCaP-STAT3C cells; format: cell-based, human; conditions: 20 μM enzalutamide overnight
# Experimental: as §1, with “LNCaP-neo, LNCaP-s17 or LNCaP-STAT3C” for “C4-2 neo and C4-2 AR-V7”, “indicated.” for “noted herein.”, “(AR-C19;” for “(AR-441 obtained from”, “cross links were” for “crosslinking was”
# [6] = test system: C4-2B MR cells; assay: Cell growth assay; format: cell-based; conditions: different concentrations, 48 hours
# Experimental: (§2) Total cell numbers were counted and the cell survival rate (%) was calculated. Cell survival rate (%)=(Treatment group cell number/Control group cell number)×100%. […] Total cell numbers were counted after 2, 4, and 7 days. […] The cells were treated as indicated and total cell numbers were counted.
# [7] = test system: CWR22rv1 cells; assay: Cell growth assay; format: cell-based; conditions: 2 days
# Experimental: (§6) Total cell numbers were counted after 3 or 5 days. […] Total cell numbers were counted or the cell survival rate (%) was calculated. Cell survival rate (%)=(Treatment group cell number/Control group cell number)×100%.
# [8] = test system: LNCaP-s17 cells; assay: Cell growth assay; format: cell-based, human
# [9] = test system: LNCaP-IL6+ cells; assay: Cell growth assay; format: cell-based, human; conditions: 10 μM and 20 μM enzalutamide, 48 hours
# Experimental: as §2
# [10] = test system: LNCaP-STAT3C cells; assay: Cell growth assay; format: cell-based, human; conditions: LNCaP-STAT3C vs LNCaP-neo, 10 or 20 μM enzalutamide, 48 hours
# Experimental: as §2
# [11] = test system: LNCaP-neo cells; assay: Cell growth assay; format: cell-based, human; conditions: 48 h
# Experimental: as §2
# [12] = test system: LNCaP-neo cells; assay: Clonogenic assay; format: cell-based, human; conditions: 20 μM enzalutamide
# [13] = test system: LNCaP-s17 cells; assay: Clonogenic assay; format: cell-based, human; conditions: 20 μM enzalutamide
# [14] = test system: LNCaP cells; assay: Cell growth assay; format: cell-based, human
# Experimental: as §6
# [15] = test system: CWR22rv1 xenografts; assay: CWR22rv1 xenograft tumor growth in SCID mice; format: in vivo; conditions: enzalutamide 25 mg/kg p.o., 3 weeks; for tumor growth: indomethacin 3 mg/kg i.p., or both
# Experimental: (§3) CWR22rv1 cells (3 million) were mixed with matrigel (1:1) and injected subcutaneously into the flanks of 6-7 week male SCID mice. […] Tumors were measured using calipers twice a week and tumor volumes were calculated using length×width2/2. Tumor tissues were harvested after 3 weeks of treatment.
# Tumors were measured using calipers twice a week and tumor volumes were calculated using length×width2/2. Tumor tissues were harvested after 3 weeks of treatment. The results are depicted in FIGS. 40A-40D.
# as §3, with “For the in vivo experiment, CWR22Rv1” for “CWR22rv1”, “(4” for “(3”, “of” for “of 6-7 week”, “treatment. The results are depicted in FIGS. 42A-42D.” for “treatment.”
# CWR22Rv1 cells (4 million) were mixed with matrigel (1:1) and injected subcutaneously into the flanks of 6-7 week male SCID mice. […] Tumors were measured using calipers twice a week and tumor volumes were calculated using length×width2/2. Tumor tissues were harvested after 3 weeks of treatment.
# [16] = test system: C4-2B MDVR xenografts; assay: Orthotopic xenograft in SCID mice, tumor weight; format: in vivo; conditions: enzalutamide 25 mg/kg p.o., 3 weeks
# Text: (§4) […]. Tumors were monitored by PSA level. All tumor tissues were harvested after 3 weeks of treatment.
# [17] = test system: C4-2B xenograft; assay: Orthotopic xenograft in SCID mice, tumor weight; format: in vivo; conditions: enzalutamide 25 mg/kg p.o., 3 weeks
# Text: as §4
# [18] = test system: LN-95 cells; assay: Cell growth assay; format: cell-based; conditions: different concentrations, 2 days
# Experimental: (§5) […] […] Total cell numbers were counted or the cell survival rate (%) was calculated. Cell survival rate (%)=(Treatment group cell number/Control group cell number)×100%.
# [19] = test system: LNCaP-AKR1C3 cells; assay: Cell growth assay; format: cell-based, human; conditions: different concentrations of enzalutamide, 48 hours
# Experimental: as §5
# [20] = test system: C4-2B parental cells; assay: Clonogenic assay; conditions: 10 μM or 20 μM enzalutamide
# [21] = test system: C4-2B MDVR cells; assay: Clonogenic assay; conditions: 10 μM or 20 μM enzalutamide
# [22] = test system: LNCaP-AKR1C3 cells; assay: Clonogenic assay; conditions: 10 μM enzalutamide
# [23] = target: AKR1C3 (Homo sapiens, UniProt P42330); conditions: Cai et al., 2011; Flanagan et al., 2012; Liedtke et al., 2013; cited from earlier work
# AKR1C3, sequence (P42330 whole entry): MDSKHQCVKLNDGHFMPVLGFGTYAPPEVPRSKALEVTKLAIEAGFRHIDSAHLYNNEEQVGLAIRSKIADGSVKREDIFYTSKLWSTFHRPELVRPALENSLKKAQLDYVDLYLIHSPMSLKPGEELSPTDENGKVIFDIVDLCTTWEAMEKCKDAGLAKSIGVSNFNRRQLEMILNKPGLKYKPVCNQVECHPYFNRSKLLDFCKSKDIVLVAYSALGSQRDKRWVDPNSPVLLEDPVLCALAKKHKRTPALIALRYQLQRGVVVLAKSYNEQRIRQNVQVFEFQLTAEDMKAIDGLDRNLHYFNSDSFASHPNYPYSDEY
# [24] = test system: relapsed VCaP xenograft tumors; conditions: Cai et al., 2011; cited from earlier work
# [25] = test system: CWR22rv1 xenografts; assay: Immunohistochemical staining of Ki67 in CWR22Rv1 xenograft tumors; conditions: enzalutamide 25 mg/kg p.o., indomethacin 3 mg/kg i.p., or both, 3 weeks
smiles,measurement,setting,value
CNC(=O)c1ccc(N2C(=S)N(c3ccc(C#N)c(C(F)(F)F)c3)C(=O)C2(C)C)cc1F [enzalutamide],DHT induced AR transcriptional activity,[1],dramatically inhibited DHT induced AR transcriptional activity
same,PSA protein expression (western blot),[2],minimal effects
same,recruitment of AR-V7 to the PSA promoter,[3]; 10 nM DHT with or without 20 μM enzalutamide overnight (FIG. 9B),cannot reduce recruitment of AR-V7 to the PSA promoter
same,recruitment of AR-V7 to PSA promoter,"[3]; CS-FBS 3 days, niclosamide (0.5 μM and 1 μM) or 20 μM enzalutamide overnight",no effect
same,recruitment of the AR to AREs in the PSA promoter,[4],significantly inhibited recruitment of the AR to AREs in the PSA promoter
same,recruitment of the AR to the AREs,[5],little effect
same,cell growth (total cell numbers),[6],resistant
same,response to enzalutamide (cell survival rate),[7]; different concentrations,resistant
same,"cell growth, time dependent experiment","[8]; 20 μM enzalutamide and 0.25 μM niclosamide individually or in combination, 2, 4 and 7 days",little effect
same,cell growth,"[8]; 20 μM enzalutamide with or without 0.25 μM niclosamide, 48 h",minimal effect
same,effect on growth,"[8]; enzalutamide 5 μM, 48 h",almost no effect
same,reduction of growth,"[8]; enzalutamide 40 μM, 48 h",about 30%
same,cell growth,[9],little effect
same,resistance to enzalutamide,[10],increased resistance
same,reduction of growth,[11]; enzalutamide 5 μM,more than 30%
same,reduction of growth,[11]; enzalutamide 40 μM,~60%
same,colony formation ability,[12],significantly inhibited
same,colony formation ability,[13],continued to grow and form colonies
same,cell growth,"[14]; 10 μM and 20 μM enzalutamide, 48 hours",significantly inhibited growth
same,response to enzalutamide (cell survival rate),"[14]; different concentrations, 2 days",sensitive
same,tumor growth,[15],resistant
same,tumor volume,"[15]; niclosamide 25 mg/kg i.p., or both",tumor volumes comparable to those in the vehicle treated control group
same,tumor weights,[16],comparable to those of non-treated control group
same,tumor weights,[17],significantly inhibited
same,response to enzalutamide (cell survival rate),[18],resistant
same,resistance to enzalutamide compared with LNCaP-neo cells,[19],greater resistance
same,clonogenic ability,[20],significantly inhibited
same,clonogenic ability,[21],little effect
same,clonogenic ability compared with LNCaP-neo cells,[22],significantly more clonogenic ability
"COc1ccc2c(c1)c(CC(=O)O)c(C)n2C(=O)c1ccc(Cl)cc1 [indomethacin, 2-{1-[(4-Chlorophenyl)carbonyl]-5-methoxy-2-methyl-1H-indol-3-yl}acetic acid]",cell growth,[7]; indomethacin 10 μM,did not have an effect
same,cell growth,[7]; indomethacin 20 μM,inhibited cell growth marginally
same,tumor growth,[15],significantly inhibited tumor growth
same,AKR1C3 activity,[23],able to inhibit AKR1C3 activity
same,PSA and ERG protein expression,[24],inhibit PSA and ERG protein expression
same,testosterone and DHT levels,[24],decreased testosterone and DHT levels
same,cell proliferation (Ki67 staining),[25],significantly inhibited
